Test results from patent US20230348426A1, “OXOPYRROLIDINE FPR2 AGONISTS” (Bristol-Myers Squibb Company, priority 2020, published 2023).

Legend:
human FPR1 = human FPR1 (Homo sapiens (Human), UniProt P21462); experiment: FPR1 cyclic adenosine monophosphate (cAMP) assay; type: cell-based; settings: CHO cells overexpressing human FPR1; forskolin 10 µM; inhibition of cAMP production; read-out: hFPR1 cAMP EC50
Procedure, shortened: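 Human FPR1-expressing CHO cells were used at 4,000 per well, with compound at 0.020 nM–100 µM in 1% DMSO. Potency came from a 4-parameter logistic fit.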

human FPR2 = human FPR2 (Homo sapiens (Human), UniProt P25090); experiment: FPR2 cyclic adenosine monophosphate (cAMP) assay; type: cell-based; settings: CHO cells overexpressing human FPR2; forskolin 5 µM; inhibition of cAMP production; read-out: hFPR2 cAMP2 EC50
Procedure, shortened: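 Inhibition of forskolin-driven (5 µM) cAMP, with 200 µM IBMX, measured in human FPR2-expressing CHO cells, 2,000 per well, 30 min at room temperature; compounds tested 0.020 nM to 100 µM in 1% DMSO. HTRF 665/590 ratio converted to cAMP via calibration curve, then 4-parameter fit.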

Chain of human FPR2 (P25090 whole entry): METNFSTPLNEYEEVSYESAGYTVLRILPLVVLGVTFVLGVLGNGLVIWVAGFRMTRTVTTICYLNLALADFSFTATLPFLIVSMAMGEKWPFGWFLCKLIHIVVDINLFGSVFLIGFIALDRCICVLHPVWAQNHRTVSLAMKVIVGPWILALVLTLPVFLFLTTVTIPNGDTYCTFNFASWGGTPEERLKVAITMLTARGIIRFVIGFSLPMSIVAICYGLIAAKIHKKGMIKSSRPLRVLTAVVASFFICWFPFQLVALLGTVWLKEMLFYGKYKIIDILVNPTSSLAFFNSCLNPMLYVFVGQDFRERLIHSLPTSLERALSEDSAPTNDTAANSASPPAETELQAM
Chain of human FPR1 (P21462 whole entry): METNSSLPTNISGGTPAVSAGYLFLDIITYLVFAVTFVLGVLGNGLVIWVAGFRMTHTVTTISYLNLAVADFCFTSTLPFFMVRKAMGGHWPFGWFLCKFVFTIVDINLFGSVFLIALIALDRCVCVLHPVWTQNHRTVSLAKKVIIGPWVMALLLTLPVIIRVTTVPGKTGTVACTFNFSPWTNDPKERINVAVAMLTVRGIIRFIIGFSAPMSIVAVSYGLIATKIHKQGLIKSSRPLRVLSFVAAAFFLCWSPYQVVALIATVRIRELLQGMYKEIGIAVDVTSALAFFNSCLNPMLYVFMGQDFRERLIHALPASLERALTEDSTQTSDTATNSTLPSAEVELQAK

Structure (SMILES)	EC50 (human FPR1)	EC50 (human FPR2)
COCCn1nccc(N2C[C@@H](c3c(F)cc(OC)cc3F)[C@H](NC(=O)c3ccc(OC(F)F)cc3)C2=O)c1=O [Example 398]	11 nM	7.2 nM
COc1cc(F)c([C@@H]2CN(c3c(C)ccn(CC4CCO4)c3=O)C(=O)[C@H]2NC(=O)c2ccc(Cl)cc2)c(F)c1 (stereo partly shown) [Example 614]	33 nM	6 nM
COCC(CO)n1cccc(N2C[C@@H](c3ccc(OC)cc3)[C@H](NC(=O)c3ccc(Cl)cc3)C2=O)c1=O (stereo partly shown) [Example 411]	120 nM	2.6 nM
COc1cc(F)c([C@@H]2CN(c3nc(N4CC(F)(F)C4)ccc3F)C(=O)[C@H]2NC(=O)c2ccc(OC(F)F)cc2)c(F)c1 [Example 117]	210 nM	3.1 nM
COc1cc(F)c([C@@H]2CN(CC3CC3)C(=O)[C@H]2NC(=O)c2ccc(OC(F)F)cc2)c(F)c1 [Example 3, N-((3S,4R)-1-(cyclopropylmethyl)-4-(2,6-difluoro-4-methoxyphenyl)-2-oxopyrrolidin-3-yl)-4-(difluoromethoxy)benzamide]	1700 nM	29 nM
COc1cc(F)c([C@@H]2CN(c3ncccc3C(F)(F)F)C(=O)[C@H]2NC(=O)c2ccc(Cl)nc2)c(F)c1 [Example 344]	2000 nM	46 nM
COCCOc1ncccc1N1C[C@@H](c2c(F)cc(OC)cc2F)[C@H](NC(=O)c2ccc(OC(F)(F)F)cc2)C1=O [Example 408]	9 nM	3.5 nM
COc1cc(N2C[C@@H]3C[C@H]2CN3C)nc(N2C(=O)[C@@H](NC(=O)c3ccc(Cl)cc3)[C@H](c3c(F)cc(OC)cc3F)[C@@H]2C)c1 [Example 70]	> 10000 nM	1.9 nM
COc1cc(F)c([C@H]2[C@H](NC(=O)c3ccc(OC(F)F)cc3)C(=O)N(c3cccc(C4CCCN(C)C4)n3)[C@H]2C)c(F)c1 (stereo partly shown) [Example 512]	2100 nM	3.7 nM
COc1cc(F)c([C@@H]2CN(c3ccnc(N4C[C@@H]5C[C@H]4CN5C)c3C(F)(F)F)C(=O)[C@H]2NC(=O)c2ccc(OC(F)F)cc2)c(F)c1 [Example 65]	180 nM	1.7 nM
COc1cc(F)c([C@@H]2CN(c3ccnn(CC(O)C(F)(F)F)c3=O)C(=O)[C@H]2NC(=O)c2ccc(OC(F)F)cc2)c(F)c1 (stereo partly shown) [Example 475]	20 nM	2 nM
COCCn1cccc(N2C(=O)[C@@H](NC(=O)c3ccc(OC(F)(F)F)cc3)[C@H](c3c(F)cc(OC)cc3F)[C@@H]2C)c1=O [Example 100]	22 nM	2.7 nM
COc1cc(F)c([C@@H]2CN(c3cccnc3C#N)C(=O)[C@H]2NC(=O)c2ccc(OC(F)F)cc2)c(F)c1 [Example 1, N-((3S,4R)-1-(2-cyanopyridin-3-yl)-4-(2,6-difluoro-4-methoxyphenyl)-2-oxopyrrolidin-3-yl)-4-(difluoromethoxy)benzamide]	4200 nM	28 nM
COc1cc(F)c([C@@H]2CN(c3cccn4ccnc34)C(=O)[C@H]2NC(=O)c2ccc(Cl)cc2)c(F)c1 [Example 519]	480 nM	3.1 nM
COc1cc(F)c([C@@H]2CN(c3c(C)ccn(CC(F)F)c3=O)C(=O)[C@H]2NC(=O)c2ccc(OC(F)(F)F)cc2)c(F)c1 [Example 86]	4.1 nM	2.3 nM
COc1cc(F)c([C@@H]2CN(c3nc(N(C)C(C)=O)ccc3F)C(=O)[C@H]2NC(=O)c2ccc(OC(F)F)cc2)c(F)c1 [Example 177]	15 nM	4.6 nM
CCn1cc(C)c(C)c(N2C[C@@H](c3c(F)cc(OC)cc3F)C(NC(=O)c3ccc(OC(F)(F)F)cc3)C2=O)c1=O (stereo partly shown) [Example 638]	290 nM	14 nM
COCCn1cncc(N2C[C@@H](c3c(F)cc(OC)cc3F)[C@H](NC(=O)c3ccc(OC(F)F)cc3)C2=O)c1=O [Example 370]	1400 nM	3.7 nM
COCC(CO)n1cccc(N2C[C@@H](c3ccc(OC)cc3)[C@H](NC(=O)c3ccc(Cl)cc3)C2=O)c1=O (stereo partly shown) [Example 397]	15 nM	2.7 nM
COc1cc(F)c([C@@H]2CN(c3c(C)ccn(C4COC4)c3=O)C(=O)[C@H]2NC(=O)c2ccc(OC(F)(F)F)cc2)c(F)c1 [Example 463]	6 nM	3.9 nM
COCC(C(=O)N1CCOCC1)n1cccc(N2C[C@@H](c3ccc(OC)cc3)[C@H](NC(=O)c3ccc(OC(F)F)cc3)C2=O)c1=O (stereo partly shown) [Example 441]	3 nM	5.2 nM
COc1cc(F)c([C@@H]2CN(c3nc(N4C[C@@H]5C[C@H]4CN5C)ccc3OC)C(=O)[C@H]2NC(=O)c2ccc(OC(F)F)cc2)c(F)c1 [Example 328]	610 nM	12 nM
CCn1ccc(N2C[C@@H](c3c(F)cc(OC)cc3F)[C@H](NC(=O)c3ccc(OC(F)F)cc3)C2=O)n1 [Example 648]	4.1 nM	0.7 nM
COc1cc(F)c([C@@H]2CN(c3c(C)ccn(CC4CC4)c3=O)C(=O)[C@H]2NC(=O)c2ccc(OC(F)F)cc2)c(F)c1 [Example 195]	1.3 nM	5.2 nM

Structure (SMILES)	EC50 (human FPR1)	EC50 (human FPR2)
COc1cc(F)c([C@@H]2CN(c3c(C)ccn(CC(O)C(F)(F)F)c3=O)C(=O)[C@H]2NC(=O)c2ccc(OC(F)F)cc2)c(F)c1 (stereo partly shown) [Example 489]	5 nM	0.7 nM
COc1cc(N2C[C@@H]3C[C@H]2CN3C)nc(N2C(=O)[C@@H](NC(=O)c3ccc(OC(F)F)cc3)[C@H](c3c(F)cc(OC)cc3F)[C@H]2C)c1 [Example 71]	290 nM	1.9 nM
COc1cc(F)c([C@H]2[C@H](NC(=O)c3ccc(OC(F)(F)F)cc3)C(=O)N(c3cccn(CCO)c3=O)[C@H]2C)c(F)c1 [Example 301]	150 nM	9.3 nM
COCC(CO)n1cccc(N2C[C@@H](c3ccc(OC)cc3F)[C@H](NC(=O)c3ccc(OC(F)F)cc3)C2=O)c1=O (stereo partly shown) [Example 438]	7 nM	3.9 nM
COc1cc(F)c([C@@H]2CN(c3cccn(CCN4CCS(=O)(=O)CC4)c3=O)C(=O)[C@H]2NC(=O)c2ccc(OC(F)F)cc2)c(F)c1 [Example 306]	250 nM	9.8 nM
COc1cc(F)c([C@@H]2CN(c3cccn(CCO)c3=O)C(=O)[C@H]2NC(=O)c2ccc(OC(F)(F)F)cc2)c(F)c1 [Example 174]	67 nM	4.5 nM
COc1cc(F)c([C@@H]2CN(c3cncn(C4CCOCC4)c3=O)C(=O)[C@H]2NC(=O)c2ccc(Cl)cc2)c(F)c1 [Example 542]	1200 nM	5.7 nM
COc1cc(F)c([C@@H]2CN(c3ccc(CO)n(C)c3=O)C(=O)[C@H]2NC(=O)c2ccc(OC(F)(F)F)cc2)c(F)c1 [Example 227]	240 nM	6.2 nM
CCN1CCC(N2C[C@@H](c3c(F)cc(OC)cc3F)[C@H](NC(=O)c3ccc(OC(F)(F)F)cc3)C2=O)C1=O (stereo partly shown) [Example 372]	17 nM	2.8 nM
COc1cc(F)c([C@@H]2CN(c3c(C)ccn(CC(O)C(F)(F)F)c3=O)C(=O)[C@H]2NC(=O)c2ccc(OC(F)F)cc2)c(F)c1 (stereo partly shown) [Example 634]	2.3 nM	2 nM
COc1cc(F)c([C@H]2[C@H](NC(=O)c3ccc(OC(F)F)cc3)C(=O)N(c3cccc(C4CCN(CCO)CC4)n3)[C@H]2C)c(F)c1 [Example 524]	1400 nM	0.8 nM
COc1cc(F)c([C@@H]2CN(c3c(C)ccn(CC4CC4)c3=O)C(=O)[C@H]2NC(=O)c2ccc(OC(F)(F)F)cc2)c(F)c1 [Example 151]	0.5 nM	3.9 nM
COCC(C(=O)N1CC2(COC2)C1)n1cccc(N2C[C@@H](c3c(F)cc(OC)cc3F)[C@H](NC(=O)c3ccc(OC(F)(F)F)cc3)C2=O)c1=O (stereo partly shown) [Example 482]	1 nM	2.5 nM
COCCn1cccc(N2C[C@@H](c3ccc(OC)cc3F)[C@H](NC(=O)c3ccc(OC(F)(F)F)cc3)C2=O)c1=O [Example 53]	2.3 nM	1.4 nM
COc1cc(F)c([C@@H]2CN(c3cc(P(C)(C)=O)ccn3)C(=O)[C@H]2NC(=O)c2ccc(OC(F)(F)F)cc2)c(F)c1 [Example 13]	85 nM	45 nM
COc1cc(F)c([C@@H]2CN(c3nc(N4CCC(O)C4=O)ccc3F)C(=O)[C@H]2NC(=O)c2ccc(OC(F)(F)F)cc2)c(F)c1 (stereo partly shown) [Example 326]	35 nM	11 nM
CCn1cccc(N2C[C@@H](c3c(F)cc(OC)cc3F)[C@H](NC(=O)c3ccc(C(F)(F)F)cc3)C2=O)c1=O [Example 159]	74 nM	4.1 nM
COc1cc(F)c([C@@H]2CN(c3c(C)ccn(C(F)F)c3=O)C(=O)[C@H]2NC(=O)c2ccc(OC(F)F)cc2)c(F)c1 [Example 381]	10 nM	4 nM
COc1cc(F)c([C@@H]2CN(c3ccccc3P(C)(C)=O)C(=O)[C@H]2NC(=O)c2ccc(OC(F)(F)F)cc2)c(F)c1 [Example 19]	540 nM	24 nM
COc1cc(F)c([C@@H]2CN(c3cccn(CC(C)O)c3=O)C(=O)[C@H]2NC(=O)c2ccc(OC(F)(F)F)cc2)c(F)c1 (stereo partly shown) [Example 173]	12 nM	4.5 nM
COc1cc(F)c([C@@H]2CN(c3nccc(N4CCN(C)CC4)c3C(F)(F)F)C(=O)[C@H]2NC(=O)c2ccc(Cl)cc2)c(F)c1 [Example 250]	4800 nM	6.9 nM
COc1ccc([C@@H]2CN(c3cccn(CCC(F)(F)F)c3=O)C(=O)[C@H]2NC(=O)c2ccc(OC(F)F)cc2)c(F)c1 [Example 55]	8.6 nM	1.4 nM
COCCn1ccc(C)c(N2C[C@@H](c3c(F)cc(OC)cc3F)[C@H](NC(=O)c3ccc(OC(F)F)cc3)C2=O)c1=O [Example 232]	3.2 nM	6.3 nM
